Measured values from patent US4077981A, “Certain 1-alkyl-2-dichlorophenyliminopyrrolidines” (Bayer Aktiengesellschaft, priority 1968, dated 1978).
Where two headings read alike, the source gives them in different places.

Key:
[1] = Toxicity on the mouse; conditions: in vivo, read-out: Toxicity (highest survived dose)
Experimental: The toxicity determined on the mouse is: orally, 500 mg/kg; subcutaneously,500 mg/kg (highest survived doses).

[2] = test system: Boophilus microplus, Biarra strain (resistant); assay: In-vitro test for ovicidal effect on ticks (Biarra strain); conditions: for Ovicidal effect: 50% inhibition with the stated concentration of active compound: Table 4, concentration giving 50% inhibition; for Ovicidal effect: 50% inhibition with the stated concentration of active compound / Ovicidal effect: 100% inhibition with the stated concentration of active compound: ovicidal only (marked not adulticidal); for Ovicidal effect: 100% inhibition with the stated concentration of active compound: Table 4, concentration giving 100% inhibition
Experimental: (§1) In-vitro Test for Ovicidal Effect on Ticks
The emulsion concentrate so obtained is diluted with water to the application concentration desired in each case.
After immersion of, in each case, 10 female specimens of the various strains of ticks, the individual ticks are transferred to plastic dishes, the bottom of each of which is covered with a disc of filter paper.

[3] = test system: Boophilus, Biarra strain; assay: In-vitro test for adulticidal effect on ticks (24 hours); set-up: species or system Boophilus microplus; conditions: Table 4, after 24 hours, at the concentrations stated
Experimental: In addition, the adulticidal effectiveness of the preparation of the given active compound after 24 hours is determined by ascertaining the voluntary movement of limbs and bodies of the immersed adult ticks after stimulation with a fine needle compared with the voluntary movement of limbs and bodies of the untreated adult ticks. The effectiveness is stated in %, 100% meaning that no movements of any kind of the limbs and bodies were any longer detectable, and 0% signifying that the ticks moved limbs and bodies in normal manner.

[4] = test system: Boophilus microplus, Ridgeland strain (resistant); assay: In-vitro test for ovicidal effect on ticks (Ridgeland strain); conditions: Rhipicephalus microplus, 840 h, Ridgeland strain, resistant, after 35 days, read-out: Inhibition of egg depositing
Experimental: as §1
(§2) 3 g of the particular active compound are mixed with 7 g of a mixture of equal parts by weight of ethyleneglycol monomethyl ether and nonylphenyl polyglycol ether. The emulsion concentrate so obtained is diluted with water to the application concentration desired in each case.
(§3) Adult, fully engorged female ticks of the species Boophilus microplus (resistant) are immersed for 1 minute in this preparation of the given active compound. After immersion of, in each case, 10 female specimens of the various strains of ticks, the individual ticks are transferred to plastic dishes, the bottom of each of which is covered with a disc of filter paper. As a control, similar ticks of a normally sensitive strain are treated in exactly the same manner.
(§4) After 35 days, the effectiveness of the preparation of the given active compound is determined by ascertaining the inhibition of the depositing of fertile eggs compared with the egg depositing of untreated control ticks. The effect is stated in %, 100% meaning that fertile eggs ceased to be deposited, and 0% signifying that the ticks have deposited eggs in normal manner like the untreated control ticks.

[5] = test system: Boophilus microplus, normally sensitive strain; assay: In-vitro test for ovicidal effect on ticks (normally sensitive strain); conditions: Rhipicephalus microplus, 840 h, after 35 days, read-out: Inhibition of egg depositing
Experimental: as §1, §2, §3, §4

[6] = test system: Boophilus microplus, Biarra strain; assay: In-vivo test against ticks on cattle; set-up: species or system Boophilus microplus (on cattle)
Experimental: In-vivo test against ticks on cattle
3 parts of the particular active compound are mixed with 7 parts of a mixture of equal parts by weight of ethyleneglycol monomethyl ether and nonylphenyl polyglycol ether. The emulsion concentrate so obtained is diluted with water to the application concentration desired in each case.
Cattle which have been infected (12 times at intervals of 2 days) with resistant larvae of ticks of the species Boophilus microplus, Biarra strain, are sprayed on the 24th day after the first infection with the preparation of the given active compound so obtained.
The effect of the preparation of the given active compound is determined by ascertaining the number of adult female ticks which have reached development on the treated cattle and later lay viable eggs. This number is compared with the number of adult femal ticks which have reached development on untreated cattle.
As a measure of the intensity of the infestation before treatment, there is used the number of adult females which reach development in the case of the treated and untreated animals in the last three days before the time of treatment.

C=CCN1CCCC1=Nc1ccc(Cl)cc1Cl [Example 6, 1-(α-allyl)-2-(2',4'-dichloro-phenylimino)-pyrrolidine]
MTD ([1]; po, orally): 500 mg/kg
MTD ([1]; sc, subcutaneously): 500 mg/kg

C=CCN1CCCC1=Nc1cc(Cl)c(Cl)cc1Cl
Ovicidal effect: 50% inhibition with the stated concentration of active compound [2]: 0.02 % by weight
Ovicidal effect: 100% inhibition with the stated concentration of active compound [2]: 0.03 % by weight
Adulticidal effect [3]: not adulticidal

C=CCN1CCCC1=Nc1ccc(Cl)cc1C
Ovicidal effect: 50% inhibition with the stated concentration of active compound [2]: 0.02 % by weight
Ovicidal effect: 100% inhibition with the stated concentration of active compound [2]: 0.03 % by weight
Adulticidal effect [3]: not adulticidal

C=CCN1CCCC1=Nc1cc(Cl)ccc1Cl
Ovicidal effect: 50% inhibition with the stated concentration of active compound [2]: 0.03 % by weight
Ovicidal effect: 100% inhibition with the stated concentration of active compound [2]: 0.1 % by weight
Adulticidal effect [3]: not adulticidal

CCCCN1CCCC1=Nc1ccc(F)cc1Cl
Ovicidal effect: 50% inhibition with the stated concentration of active compound [2]: 0.01 % by weight
Ovicidal effect: 100% inhibition with the stated concentration of active compound [2]: 0.03 % by weight
Adulticidal effect [3]: not adulticidal

CN1CCCC1=Nc1ccc(Cl)cc1Cl [l1, 1-methyl-2-(2',4'-dichloro-phenylimino)-pyrrolidine]
inhibition at 0.01 % strength ([4]; 0.01% active compound): 0%
inhibition at 0.03 % strength ([4]; 0.03% active compound): > 50%
inhibition at 0.1 % strength ([4]; 0.1% active compound): 100%
inhibition at 0.3 % strength ([4]; 0.3% active compound): 100%
inhibition at 1 % strength ([4]; 1.0% active compound): 100%
inhibition at 0.01 % strength ([2]; Rhipicephalus microplus, 840 h, 0.01% active compound, resistant, after 35 days, read-out: Inhibition of egg depositing): 0%
inhibition at 0.03 % strength ([2]; Rhipicephalus microplus, 840 h, 0.03% active compound, resistant, after 35 days, read-out: Inhibition of egg depositing): > 50%
inhibition at 0.1 % strength ([2]; Rhipicephalus microplus, 840 h, 0.1% active compound, resistant, after 35 days, read-out: Inhibition of egg depositing): 100%
inhibition at 0.3 % strength ([2]; Rhipicephalus microplus, 840 h, 0.3% active compound, resistant, after 35 days, read-out: Inhibition of egg depositing): 100%
inhibition at 1 % strength ([2]; Rhipicephalus microplus, 840 h, 1.0% active compound, resistant, after 35 days, read-out: Inhibition of egg depositing): 100%
inhibition at 0.01 % strength ([5]; 0.01% active compound): 0%
inhibition at 0.03 % strength ([5]; 0.03% active compound): > 50%
inhibition at 0.1 % strength ([5]; 0.1% active compound): 100%
inhibition at 0.3 % strength ([5]; 0.3% active compound): 100%
inhibition at 1 % strength ([5]; 1.0% active compound): 100%
Number of female adult ticks which reach development on the cattle ([6]; 0.3%, days after treatment +4+5+6): 1
Number of female adult ticks which reach development on the cattle ([6]; 0.3%, days after treatment +7+8+9): 119
Number of female adult ticks which reach development on the cattle ([6]; 0.4%, days after treatment +7+8+9): 72
Number of female adult ticks which reach development on the cattle ([6]; 0.5%, days after treatment +7+8+9): 1
Number of female adult ticks which reach development on the cattle ([6]; 0.5%, days after treatment +10+11+12): 7
Number of female adult ticks which reach development on the cattle ([6]; 0.5%, days after treatment +13+14+15): 3
Number of female adult ticks which reach development on the cattle ([6]; 0.5%, days after treatment +16+17+18): 1
Total number of female adult ticks which reach development on the cattle ([6]; 0.5%, total 1-21 days): 12
